IC50 data for five compounds are collected here from patent US20080200454A1, “CARBON-LINKED TETRAHYDRO-PYRAZOLO-PYRIDINE MODULATORS OF CATHEPSIN S” (priority 2007, published 2008).

Read-outs that look alike come from different tables or passages of the source.

The experiment addresses Recombinant human cathepsin S (CatS) (Homo sapiens, UniProt P25774). In words: Recombinant human cathepsin S (CatS) inhibition assay, fluorogenic substrate Z-Valine-Valine-Arginine-AMC.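 Note: Baculovirus-expressed CatS in pH 5.0 sodium acetate buffer with DTT and NaCl, fluorescence read each minute over 20 min, inhibition derived from rate slope.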

Usually IC50 stands for the midpoint of a concentration-inhibition curve.

Chain of Recombinant human cathepsin S (CatS) (P25774 115-331): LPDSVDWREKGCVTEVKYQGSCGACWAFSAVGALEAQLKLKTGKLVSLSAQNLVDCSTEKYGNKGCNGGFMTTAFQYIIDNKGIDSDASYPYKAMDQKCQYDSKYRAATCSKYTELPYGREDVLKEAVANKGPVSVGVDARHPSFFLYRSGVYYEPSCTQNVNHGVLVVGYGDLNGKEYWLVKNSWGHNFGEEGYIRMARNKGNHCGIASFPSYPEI

Turning to `CN(C)Cc1cc(C#Cc2cc(-c3nn(CCCN4CCCCC4)c4c3CN(S(C)(=O)=O)CC4)ccc2Cl)ccc1Cl` [Example 617, 1-[2-Chloro-5-({2-chloro-5-[5-(methylsulfonyl)-1-(3-piperidin-1-ylpropyl)-4,5,6,7-tetrahydro-1H-pyrazolo[4,3-c]pyridin-3-yl]phenyl}ethynyl)phenyl]-N,N-dimethylmethanamine], the 50% inhibitory concentration (IC50) (CatS IC50) came out at 40 nM.

For the compound `C[C@H]1COCCN1CCCn1nc(-c2ccc(Cl)c(C#Cc3ccc(CO)cc3)c2)c2c1CCN(C(=O)C(N)=O)C2` [Example 618, 2-[3-(4-Chloro-3-{[4-(hydroxymethyl)phenyl]ethynyl}phenyl)-1-{3-[(3S)-3-methylmorpholin-4-yl]propyl}-1,4,6,7-tetrahydro-5H-pyrazolo[4,3-c]pyridin-5-yl]-2-oxoacetamide], the IC50 (CatS IC50) is 20 nM.

For `CC(C)NCc1cc(C#Cc2cc(-c3nn(CCCN4CCOC[C@@H]4C)c4c3CN(C(=O)C(N)=O)CC4)ccc2Cl)ccc1Cl` [Example 619, 2-(3-{4-Chloro-3-[(4-chloro-3-{[(1-methylethyl)amino]methyl}phenyl)ethynyl]phenyl}-1-{3-[(3S)-3-methylmorpholin-4-yl]propyl}-1,4,6,7-tetrahydro-5H-pyrazolo[4,3-c]pyridin-5-yl)-2-oxoacetamide], where the note is “CatS IC50”, the concentration for half-maximal inhibition (IC50) worked out at 20 nM.

Consider `C[C@@H]1COCCN1CCCn1nc(-c2ccc(Cl)c(C#Cc3ccc(CNCc4ccc(Cl)cc4)cc3)c2)c2c1CCN(C(=O)C(N)=O)C2` [Example 620, 2-(3-{4-Chloro-3-[(4-{[(4-chlorobenzyl)amino]methyl}phenyl)ethynyl]phenyl}-1-{3-[(3R)-3-methylmorpholin-4-yl]propyl}-1,4,6,7-tetrahydro-5H-pyrazolo[4,3-c]pyridin-5-yl)-2-oxoacetamide], for which the IC50 turned out to be 150 nM.

As to “(2S)-1-(4,4′-Bipiperidin-1-yl)-3-[3-{4-chloro-3-[3-(diethylamino)prop-1-yn-1-yl]phenyl}-5-(methylsulfonyl)-4,5,6,7-tetrahydro-1H-pyrazolo[4,3-c]pyridin-1-yl]propan-2-ol [Example 471]”, the half-inhibitory concentration (IC50) (read-out: CatS IC50, Table 4, average of results obtained) was determined as 7420 nM.
